According to ChEMBL document CHEMBL2331227, “Khayseneganins A-H, limonoids from Khaya senegalensis” (2013):
In brackets after ≈: the same amount, converted by molar mass.

How the values were obtained:
Type in all cases: functional
Pseudomonas aeruginosa = assay: Antimicrobial activity against Pseudomonas aeruginosa ATCC 27853 by two-fold dilution method
Staphylococcus aureus [1] = assay: Antimicrobial activity against methicillin-resistant Staphylococcus aureus isolate 92 by two-fold dilution method
Staphylococcus aureus [2] = assay: Antimicrobial activity against methicillin-resistant Staphylococcus aureus isolate 98 by two-fold dilution method
Staphylococcus aureus [3] = assay: Antimicrobial activity against Staphylococcus aureus ATCC 25923 by two-fold dilution method

| SMILES | MIC (Pseudomonas aeruginosa) | MIC (Staphylococcus aureus [1]) | MIC (Staphylococcus aureus [2]) | MIC (Staphylococcus aureus [3]) |
| --- | --- | --- | --- | --- |
| COC(=O)[C@H](O)[C@H]1C(C)(C)[C@H](OC(C)=O)[C@@H]2CC3=C4CC(=O)O[C@@H](c5ccoc5)[C@]4(C)CC[C@@H]3[C@@]1(C)C2=O [SWIETENOLIDE-3-ACETATE] | 25 µg/mL (≈ 47.3 µM) | 25 µg/mL (≈ 47.3 µM) | 25 µg/mL (≈ 47.3 µM) | 25 µg/mL (≈ 47.3 µM) |
| COC(=O)[C@H](O)[C@H]1C(C)(C)C(=O)[C@@H]2C[C@]3(O)[C@@H]4CC(=O)O[C@@H](c5ccoc5)[C@]4(C)CC[C@@H]3[C@@]1(C)C2=O [KHAYANONE] | > 50 µg/mL | 25 µg/mL (≈ 49.7 µM) | 25 µg/mL (≈ 49.7 µM) | 25 µg/mL (≈ 49.7 µM) |
| COC(=O)C[C@H]1C(C)(C)[C@H](OC(C)=O)[C@@H]2C=C3[C@H]([C@H](OC(C)=O)C[C@]4(C)[C@H]3CC(=O)O[C@H]4c3ccoc3)[C@@]1(C)C2=O [SWIETMANIN B] | 12.5 µg/mL (≈ 21.9 µM) | 50 µg/mL (≈ 87.6 µM) | 12.5 µg/mL (≈ 21.9 µM) | 25 µg/mL (≈ 43.8 µM) |
| COC(=O)C[C@H]1C(C)(C)[C@H](OC(C)=O)[C@]2(O)C=C3[C@H]([C@H](OC(C)=O)C[C@]4(C)[C@H]3CC(=O)O[C@H]4c3ccoc3)[C@@]1(C)C2=O | 25 µg/mL (≈ 42.6 µM) | 25 µg/mL (≈ 42.6 µM) | 25 µg/mL (≈ 42.6 µM) | 25 µg/mL (≈ 42.6 µM) |
| COC(=O)C[C@H]1C(C)(C)[C@H](OC(C)=O)[C@@H]2C=C3[C@@H]4CC(=O)O[C@@H](c5ccoc5)[C@]4(C)CC[C@@H]3[C@@]1(C)C2=O | 12.5 µg/mL (≈ 24.4 µM) | 12.5 µg/mL (≈ 24.4 µM) | 12.5 µg/mL (≈ 24.4 µM) | 25 µg/mL (≈ 48.8 µM) |
| CC(=O)O[C@H]1C[C@@H](OC(C)=O)C(C)(C)[C@@H]2CC(=O)[C@]3(C)[C@H](CC[C@@]4(C)[C@@H](c5ccoc5)OC(=O)[C@H]5O[C@]543)[C@@]12C | 25 µg/mL (≈ 46.1 µM) | 50 µg/mL (≈ 92.1 µM) | 25 µg/mL (≈ 46.1 µM) | 50 µg/mL (≈ 92.1 µM) |
| COC(=O)[C@@H](OC(C)=O)[C@H]1C(C)(C)C(=O)[C@@H]2C=C3[C@@H]4CC(=O)O[C@@H](c5ccoc5)[C@]4(C)CC[C@@H]3[C@@]1(C)C2=O [khayalenoid E] | 25 µg/mL (≈ 47.5 µM) | 25 µg/mL (≈ 47.5 µM) | 25 µg/mL (≈ 47.5 µM) | 25 µg/mL (≈ 47.5 µM) |
| COC(=O)[C@H](O)[C@H]1[C@]2(C)C[C@]3(OC(C)=O)[C@@H]4[C@@](OC)(O[C@]56CC(=O)O[C@@H](c7ccoc7)[C@]5(C)CC[C@H]([C@]13C)[C@@]46O)[C@H]2O (relative stereo) |  | > 50 µg/mL | > 50 µg/mL |  |
| CN[C@H](CC(C)C)C(=O)N[C@H]1C(=O)N[C@@H](CC(N)=O)C(=O)N[C@H]2C(=O)N[C@H]3C(=O)N[C@H](C(=O)N[C@H](C(=O)O)c4cc(O)cc(O)c4-c4cc3ccc4O)[C@H](O)c3ccc(c(Cl)c3)Oc3cc2cc(c3O[C@@H]2O[C@H](CO)[C@@H](O)[C@H](O)[C@H]2O[C@H]2C[C@](C)(N)[C@H](O)[C@H](C)O2)Oc2ccc(cc2Cl)[C@H]1O.Cl [VANCOMYCIN HYDROCHLORIDE] | 25 µg/mL | 0.78 µg/mL | 0.78 µg/mL | 0.78 µg/mL |
| COC(=O)C[C@H]1C(C)(C)[C@H](O)[C@@H]2C=C3[C@H]([C@H](OC(C)=O)C[C@]4(C)[C@H]3CC(=O)O[C@H]4c3ccoc3)[C@@]1(C)C2=O [Swietmanin C] | > 50 µg/mL | > 50 µg/mL | > 50 µg/mL | > 50 µg/mL |
| CC(=O)O[C@@H]1C[C@H](O)[C@]2(C)[C@H]3CC[C@@]4(C)[C@@H](c5ccoc5)OC(=O)[C@H]5O[C@]54[C@]3(C)[C@H](OC(C)=O)C[C@H]2C1(C)C | 25 µg/mL (≈ 45.9 µM) | 25 µg/mL (≈ 45.9 µM) | 12.5 µg/mL (≈ 23 µM) | 25 µg/mL (≈ 45.9 µM) |
| CC(=O)O[C@H]1C[C@@H](O)C(C)(C)[C@@H]2C[C@@H](OC(C)=O)[C@]3(C)[C@H](CC[C@@]4(C)[C@@H](c5ccoc5)OC(=O)[C@H]5O[C@@]534)[C@@]12C [3-DEACETYLKHIVORIN] | 12.5 µg/mL (≈ 23 µM) | 12.5 µg/mL (≈ 23 µM) | 12.5 µg/mL (≈ 23 µM) | 25 µg/mL (≈ 45.9 µM) |
| CC(=O)O[C@H]1C[C@@H](O)C(C)(C)[C@@H]2C[C@@H](O)[C@]3(C)[C@H](CC[C@@]4(C)[C@@H](c5ccoc5)OC(=O)[C@H]5O[C@@]534)[C@@]12C | > 50 µg/mL | > 50 µg/mL | > 50 µg/mL | > 50 µg/mL |
| C=C1[C@@H]2CC[C@@]3(C)[C@H](c4ccoc4)OC(=O)C[C@]13O[C@H]1CC(=O)OC(C)(C)[C@H]([C@@H](O)C(=O)OC)[C@]12C (relative stereo) | 25 µg/mL (≈ 49.7 µM) | 25 µg/mL (≈ 49.7 µM) | 50 µg/mL (≈ 99.5 µM) | 50 µg/mL (≈ 99.5 µM) |
| CC1(C)C(=O)[C@@H]2C[C@@]34O[C@]2(O)[C@]2(COC(=O)C[C@@H]12)[C@H]3CC[C@]1(C)[C@H]4CC(=O)O[C@H]1c1ccoc1 [SENEGANOLIDE] | > 50 µg/mL | > 50 µg/mL | > 50 µg/mL | > 50 µg/mL |
| C=C1[C@H]2CC[C@]3(C)[C@H](c4ccoc4)OC(=O)C[C@@]13O[C@H]1CC(=O)OC(C)(C)[C@@H](CC(=O)OC)[C@@]12C [METHYL IVORENSATE] | > 50 µg/mL | > 50 µg/mL | > 50 µg/mL | > 50 µg/mL |
| COC(=O)[C@H](O)[C@@H]1[C@@]2(C)[C@H]3CC[C@]4(C)C(=CC(=O)O[C@H]4c4ccoc4)[C@]3(O)[C@H]3[C@@H](O)C(=O)[C@@]1(C)C[C@]32OC(C)=O (relative stereo) | > 50 µg/mL | > 50 µg/mL | > 50 µg/mL | > 50 µg/mL |
| COC(=O)C[C@H]1[C@@]2(C)C[C@]3(O)O[C@@]4(CC(=O)[C@H]2O)[C@H]2CC(=O)O[C@@H](c5ccoc5)[C@]2(C)CC[C@@H]4[C@]13C | > 50 µg/mL | > 50 µg/mL | > 50 µg/mL | > 50 µg/mL |
